# Data from patent publication US20200369674A1, “ANTI-PAIN COMPOUND AND PREPARATION METHOD THEREOF” (LUNAN PHARMACEUTICAL GROUP CORPORATION, priority 2017, published 2020).
# How the values were obtained:
# Format in all cases: in vivo
# [1] = system: ICR mice; assay: Carrageenan-induced paw swelling in mice; settings: 0.5 mg/kg i.g.
# Experimental: (§1) ICR mice, body weight 18 g-22 g, half of them being male and the other half being female, provided by the Department of Laboratory Animals, Peking University. The animals were raised in a standard environment: temperature 23±1° C., relative humidity 55±5%, light-dark cycle 12 h/12 h, and fed with standard pellet feed.
# The mouse was fixed in a special holder, and both hind feet were exposed. Before the test, a line was drawn at 0.5 cm below the ankle joint of mouse with a marker, and used as a mark for measuring plantar volume. 30 minutes before administration the volume of right hind foot was measured as basic threshold. The mice were randomly divided into 5 groups, 8 mice per group, half of them being male and the other half being female. Vehicle control group (double-distilled water, i.g.), dexamethasone control group (0.5 mg/kg, i.g.), compound DXL-A-22 group (1 mg/kg, i.g.), and DXL-A-24 group (1 mg/kg, i.g.) were set. All drugs were dissolved in double-distilled water before administration, and were administered at 0.1 mL/10 g. Immediately after intragastric administration, 20 μL of 5% carrageenan saline solution was injected subcutaneously in the right hind foot of the mice, and the plantar volumes were measured at time points of 0.5 h, 1 h and 2 h after injection. The difference between the plantar volume of right foot after injection of carrageenan and the plantar volume of right foot before injection was used as swelling degree index (i.e., swelling degree). The swelling degree was calculated according to formula (3). The intensity of anti-inflammatory effect was expressed as inhibition rate (%), and the inhibition rate (%) was calculated according to formula (4).
# Swelling degree=plantar volume of right foot after injection−plantar volume of right foot before injection (3)
# Inflammation inhibition rate (%)=(plantar swelling degree in vehicle control group−plantar swelling degree in drug administration group)/plantar swelling degree in vehicle control group×100% (4)
# [2] = system: ICR mice; assay: Xylene-induced ear swelling test in mice (Effect Example 6); settings: 2 mg/kg i.g., 30 μL xylene one hour after administration
# Experimental: as §1
# Mice were randomly divided into 5 groups, 8 mice per group, half of them being male and the other half being female. Vehicle control group (double-distilled water, i.g.), dexamethasone control group (2 mg/kg, i.g.), compound DXL-A-22 group (1 mg/kg, i.g.), and compound DXL-A-24 group (1 mg/kg, i.g.) were set. All drugs were dissolved in double-distilled water before administration, and given by intragastric administration at 0.1 mL/10 g. One hour after administration, 30 μL of xylene was evenly smeared on the inner and outer sides of right ear of mouse to cause inflammation. After 0.5 hour, the left and right ears of mouse were cut, and circular ear pieces of the same size were punched at the same position on the left and right ears using the punch (diameter 6 mm) respectively, and weighed for the weights of the left and right ear pieces. The difference between the weight of the right ear after applying xylene and the weight of the left ear without applying xylene was used as swelling degree index (i.e., swelling degree). The swelling degree was calculated according to formula (1). The intensity of anti-inflammatory effect was expressed as inhibition rate (%), and the inhibition rate (%) was calculated according to formula (2).
# Swelling degree=weight of right ear piece−weight of left ear piece (1)
# Inflammation inhibition rate (%)=(ear swelling degree in vehicle control group−ear swelling degree in drug group)/ear swelling degree in vehicle control group×100% (2)
# [3] = system: ICR mice; assay: Xylene-induced mouse ear swelling test (Effect Example 4); design: key to Inhibition rate (%): Symbol “—” indicates that the data obtained at this dose was not significantly different from the vehicle control group; settings: 50 uL xylene two hours after administration; for inhibition in vivo at 3 mg/kg: 3 mg/kg intragastric
# Experimental: (§2) ICR mice, 18-22 g, half of them being male and the other half being female, provided by the Department of Laboratory Animals, Peking University (License No.: SCXK (Beijing) 2016-0010).
# ICR mice were randomly grouped, 8 mice per group, half of them being male and the other half being female. Vehicle control group (double-distilled water) and groups for samples to be tested (the compounds and doses thereof were shown in Table 4). All drugs were dissolved in double-distilled water immediately before administration, and given by intragastric administration at predetermined doses. Two hours after administration, 50 uL of xylene was smeared evenly on the inner and outer sides of right ear of mouse. After 30 minutes, the left and right ears of mouse were cut, and circular ear pieces of the same size were punched at the same position on the left and right ears, and weighed. The ear swelling inhibition rate of compound in mice was calculated according to the formula.
# Inhibition rate %=(degree of ear swelling in vehicle control group−degree of ear swelling in test group)/degree of ear swelling in vehicle control group×100
# [4] = system: ICR mice; assay: Acetic acid writhing test; design: key to Inhibition rate (%): Symbol “—” indicates that the data obtained at this dose was not significantly different from the vehicle control group; settings: 0.6% acetic acid ip two hours after administration; for inhibition in vivo at 3 mg/kg / inhibition in vivo at 4 µmol/kg: Mus musculus, 2 h, read-out: Inhibition rate (%); for inhibition in vivo at 3 mg/kg: po, 3 mg/kg intragastric
# Experimental: as §2
# ICR mice, half of them being male and the other half being female, were randomly grouped, 8 mice per group. Vehicle control group (double-distilled water), ibuprofen control group, and groups for samples to be tested (the compounds and doses thereof were shown in Table 2) were set. All drugs were dissolved in double-distilled water before administration, and given by intragastric administration at predetermined doses. Two hours after the administration, the mice were intraperitoneally injected with 0.6% acetic acid solution (10 ml/kg, ip), and the number of times the mice writhed (abdomen depressed, buttock raised, body elongated) was recorded within 5-20 minutes. The inhibition rate % of compound on writhing pain in mice was calculated according to the following formula.
# Inhibition rate %=(number of writhing times in vehicle control group−number of writhing times in test group)/number of writhing times in vehicle control group×100
# [5] = system: ICR mice; assay: Formalin experiment; settings: Mus musculus, po, 2 h, 2.5% formalin two hours after administration, phase II 10-60 minutes, read-out: Phase II pain inhibition rate (%); for inhibition in vivo at 9 mg/kg: 9 mg/kg intragastric; for inhibition in vivo at 1 mg/kg: 1 mg/kg intragastric; for inhibition in vivo at 4 µmol/kg: 4 μmol/kg intragastric
# Experimental: as §2
# ICR mice, half of them being male and the other half being female, were randomly grouped, 8 mice per group. Vehicle control group (double-distilled water) and groups for samples to be tested were set, in which the compounds and doses thereof were shown in Table 3. All drugs were dissolved in double-distilled water before administration, and given by intragastric administration at predetermined doses. Two hours after administration, the mice were injected with 20 ul of 2.5% formalin solution in the right hind foot, and the time (s) of licking or biting foot was recorded as an index of pain response, in which 0-5 minutes was phase I, 10-60 minutes was phase II, and the total observation time was 60 minutes. The phase II pain inhibition rate of compound in mice was calculated according to the following formula:
# Inhibition rate %=(time of licking or biting foot in vehicle control group−time of licking or biting foot in test group)/time of licking or biting foot in vehicle control group×100
# [6] = system: ICR mice; assay: Hot plate test; settings: Mus musculus, po, latency 2.0 hours after administration, hot plate 55° C., read-out: PTE %; for change in vivo at 3 mg/kg: 3 mg/kg intragastric; for change in vivo at 1 mg/kg: 1 mg/kg intragastric; for change in vivo at 4 µmol/kg: 4 μmol/kg intragastric
# Experimental: as §2
# The temperature of hot plate was adjusted to 55° C., and the responses of mouse such as licking hind feet and jumping were used as the observation indexes. The time from the placement of mice on copper plate to the appearance of the above responses was defined as latency time. The latency time was measured for three times 30 minutes before administration, and the average value thereof was used as basic threshold, or baseline latency (BL). The animals with a latency time greater than 15 s and less than 5 s were removed, and the residual mice were randomly grouped, 8 animals per group.
# Vehicle control group (double-distilled water) and groups for samples to be tested (the compounds and doses thereof were shown in Table 1) were set. All drugs were dissolved in […] before administration, and given by intragastric administration. The latency time was measured 2.0 hours after administration. Percentage of Pain Threshold Elevated Rate (PTE %) of compound on mice was calculated according to the following formula:
# PTE %=(latency time of test group−latency time of vehicle control group)/latency time of vehicle control group×100
# [7] = Mus musculus, po, 2 h, read-out: Inhibition rate (%)
# [8] = Mus musculus, po, 2 h, 4 μmol/kg intragastric, read-out: Inhibition rate (%)
smiles,measurement,setting,value
"C[C@@H]1C[C@H]2[C@@H]3CCC4=CC(=O)C=C[C@]4(C)[C@@]3(F)[C@@H](O)C[C@]2(C)[C@@]1(O)C(=O)CO [Dexamethasone, reference compound]",0.5 h inhibition rate (%),[1]; 0.5 h after carrageenan injection,69.55%
same,0.5 h swelling degree (μL),"[1]; 0.5 h after carrageenan injection, mean±SD",26.00 ± 14.21**/ μL
same,1 h inhibition rate (%),[1]; 1 h after carrageenan injection,77.06%
same,1 h swelling degree (μL),"[1]; 1 h after carrageenan injection, mean±SD",19.88 ± 10.09**/ μL
same,2 h inhibition rate (%),[1]; 2 h after carrageenan injection,84.64%
same,2 h swelling degree (μL),"[1]; 2 h after carrageenan injection, mean±SD",17.13 ± 11.54**/ μL
same,Inhibition rate (%),[2],69.28%
same,Swelling degree,[2]; mean±SD,2.93 ± 0.32 mg
"Clc1cccc(N2CC[N+]3(CCCC3)CC2)c1 [DXL-A-05, 8-(3-chlorophenyl)-5,8-diazaspiro[4.5]decan-5-ium bromide]",inhibition in vivo at 3 mg/kg,[3]; [7],30.8%
same,inhibition in vivo at 3 mg/kg,[4],22.5%
same,inhibition in vivo at 9 mg/kg,[5],32.9%
same,change in vivo at 3 mg/kg,[6],19.5%
"Br.Fc1ccc(N2CC[N+]3(CCCC3)CC2)cc1 [DXL-A-16, 8-(4-fluorophenyl)-5,8-diazaspiro[4.5]decan-5-ium bromide]",Inhibition rate (%),[3]; 1 mg/kg intragastric,—
same,Inhibition rate (%),[4]; 1 mg/kg intragastric,—
same,inhibition in vivo at 1 mg/kg,[5],31.4%
same,change in vivo at 1 mg/kg,[6],31.4%
"Br.Fc1ccc(N2CC[N+]3(CCCC3)CC2)cc1F [DXL-A-21, 8-(3,4-difluorophenyl)-5,8-diazaspiro[4.5]decan-5-ium bromide]",inhibition in vivo at 1 mg/kg,"[3]; Mus musculus, po, 2 h, 1 mg/kg intragastric, read-out: Inhibition rate (%)",42.5%
same,Inhibition rate (%),[4]; 1 mg/kg intragastric,—
same,inhibition in vivo at 1 mg/kg,[5],36.6%
same,change in vivo at 1 mg/kg,[6],36.6%
"Cc1cc(N2CC[N+]3(CCCC3)CC2)cc([N+](=O)[O-])c1 [DXL-A-29, 8-(3-methyl-5-nitrophenyl)-5,8-diazaspiro[4.5]decan-5-ium bromide]",inhibition in vivo at 4 µmol/kg,[3]; [8],63.3%
same,inhibition in vivo at 4 µmol/kg,[4]; 4 μmol/kg intragastric,76%
same,inhibition in vivo at 4 µmol/kg,[5],17.3%
same,change in vivo at 4 µmol/kg,[6],36%
"N#Cc1ccc(N2CC[N+]3(CCCC3)CC2)cc1[N+](=O)[O-].[Br-] [DXL-A-32, 8-(4-cyano-3-nitrophenyl)-5,8-diazaspiro[4.5]decan-5-ium bromide]",inhibition in vivo at 4 µmol/kg,[3]; [8],20.4%
same,Inhibition rate (%),[4]; 4 μmol/kg intragastric,—
same,inhibition in vivo at 4 µmol/kg,[5],2.64%
same,change in vivo at 4 µmol/kg,[6],38%
"Clc1ccc(N2CC[N+]3(CCCC3)CC2)cc1.[Br-] [DXL-A-23, 8-(4-chlorophenyl)-5,8-diazaspiro[4.5]decan-5-ium bromide]",Inhibition rate (%),[3]; 1 mg/kg intragastric,—
same,Inhibition rate (%),[4]; 1 mg/kg intragastric,—
same,inhibition in vivo at 1 mg/kg,[5],39.2%
same,change in vivo at 1 mg/kg,[6],39.2%
"Br.N#Cc1ccc(N2CC[N+]3(CCCC3)CC2)cc1 [DXL-A-19, 8-(4-cyanophenyl)-5,8-diazaspiro[4.5]decan-5-ium bromide]",Inhibition rate (%),[3]; 1 mg/kg intragastric,—
same,Inhibition rate (%),[4]; 1 mg/kg intragastric,—
same,inhibition in vivo at 1 mg/kg,[5],34.3%
same,change in vivo at 1 mg/kg,[6],34.3%
"Cc1cccc(N2CC[N+]3(CCCC3)CC2)c1 [DXL-A-10, 8-(m-tolyl)-5,8-diazaspiro[4.5]decan-5-ium bromide]",inhibition in vivo at 3 mg/kg,[3]; [7],27.4%
same,inhibition in vivo at 3 mg/kg,[4],29.8%
same,inhibition in vivo at 9 mg/kg,[5],46.9%
same,change in vivo at 3 mg/kg,[6],11.2%
"Cc1ccc(N2CC[N+]3(CCCC3)CC2)cc1[N+](=O)[O-].[Br-] [DXL-A-30, 8-(4-methyl-3-nitrophenyl)-5,8-diazaspiro[4.5]decan-5-ium bromide]",Inhibition rate (%),[3]; 4 μmol/kg intragastric,—
same,inhibition in vivo at 4 µmol/kg,[4]; 4 μmol/kg intragastric,41.8%
same,inhibition in vivo at 4 µmol/kg,[5],16.9%
same,change in vivo at 4 µmol/kg,[6],21%
"FC(F)(F)c1cccc(N2CC[N+]3(CCCC3)CC2)c1 [DXL-A-06, 8-(3-(trifluoromethyl)phenyl)-5,8-diazaspiro[4.5]decan-5-ium bromide]",inhibition in vivo at 3 mg/kg,[3]; [7],45.9%
same,inhibition in vivo at 3 mg/kg,[4],14%
same,inhibition in vivo at 9 mg/kg,[5],17.6%
same,change in vivo at 3 mg/kg,[6],16.7%
